Test results from PubChem BioAssay (NCI).
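Exposure lasted 48 hours, with cells grown in 96-well plates and compounds tested at five concentrations. GI50: concentration for 50% inhibition of growth. TGI is the concentration that stops growth completely.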

How the values were obtained:
Assay in all cases: inhibition of tumour cell growth, NCI panel, 48 h
U251 CNS = tested on: U251 CNS
M14 melanoma = tested on: M14 melanoma
UO-31 renal = tested on: UO-31 renal
RPMI-8226 leukemia = tested on: RPMI-8226 leukemia
HCC-2998 colon = tested on: HCC-2998 colon
HL-60(TB) leukemia = tested on: HL-60(TB) leukemia
IGROV1 ovarian = tested on: IGROV1 ovarian
SF-268 CNS = tested on: SF-268 CNS
EKVX NSCLC = tested on: EKVX NSCLC
NCI-H23 lung = tested on: NCI-H23 lung
CCRF-CEM leukemia = tested on: CCRF-CEM leukemia
OVCAR-3 ovarian = tested on: OVCAR-3 ovarian
NCI-H226 lung = tested on: NCI-H226 lung
OVCAR-4 ovarian = tested on: OVCAR-4 ovarian
SK-MEL-28 melanoma = tested on: SK-MEL-28 melanoma

## NC(N)=N/N=C/c1c(Cl)nc2n1CCS2
U251 CNS
  TGI: > 100 µM
M14 melanoma
  TGI: > 100 µM
UO-31 renal
  TGI: > 100 µM
RPMI-8226 leukemia
  TGI: > 100 µM
HCC-2998 colon
  TGI: > 100 µM
HL-60(TB) leukemia
  TGI: > 100 µM
IGROV1 ovarian
  TGI: > 100 µM
SF-268 CNS
  TGI: > 100 µM
EKVX NSCLC
  TGI: > 100 µM
NCI-H23 lung
  TGI: > 100 µM
CCRF-CEM leukemia
  TGI: > 100 µM
OVCAR-3 ovarian
  TGI: > 100 µM
NCI-H226 lung
  TGI: > 100 µM
OVCAR-4 ovarian
  TGI: > 100 µM
SK-MEL-28 melanoma
  TGI: > 100 µM

## COC(=O)c1ccc(C)cc1C1CN=NC12Cc1c(C)cccc1C2=O (stereo not given)
U251 CNS
  TGI: > 100 µM
M14 melanoma
  GI50: 25.9 µM
  TGI: > 100 µM
UO-31 renal
  TGI: > 100 µM
RPMI-8226 leukemia
  TGI: > 75.3 µM
HCC-2998 colon
  TGI: > 100 µM
HL-60(TB) leukemia
  TGI: 71.1 µM
IGROV1 ovarian
  TGI: 98 µM
SF-268 CNS
  TGI: > 100 µM
EKVX NSCLC
  TGI: > 100 µM
NCI-H23 lung
  TGI: > 100 µM
CCRF-CEM leukemia
  TGI: > 100 µM
OVCAR-3 ovarian
  TGI: > 100 µM
NCI-H226 lung
  TGI: > 90.8 µM
OVCAR-4 ovarian
  TGI: > 93.9 µM
SK-MEL-28 melanoma
  TGI: > 100 µM

## CCN1C(c2ccccc2)=CC(c2ccccc2)(C(Cl)(Cl)Cl)C=C1c1ccccc1
U251 CNS
  TGI: > 100 µM
M14 melanoma
  TGI: 26.4 µM
UO-31 renal
  TGI: > 100 µM
RPMI-8226 leukemia
  TGI: > 100 µM
HCC-2998 colon
  TGI: 24.9 µM
HL-60(TB) leukemia
  TGI: 2.73 µM
IGROV1 ovarian
  TGI: 27.9 µM
SF-268 CNS
  TGI: 86.3 µM
EKVX NSCLC
  TGI: 83 µM
NCI-H23 lung
  TGI: 93.4 µM
CCRF-CEM leukemia
  TGI: > 100 µM
OVCAR-3 ovarian
  TGI: > 100 µM
NCI-H226 lung
  TGI: > 100 µM
OVCAR-4 ovarian
  TGI: > 100 µM
SK-MEL-28 melanoma
  TGI: 67 µM

## NC(=S)N/N=C1\CCc2ccccc2C1
U251 CNS
  TGI: > 100 µM
M14 melanoma
  TGI: > 100 µM
UO-31 renal
  TGI: > 100 µM
RPMI-8226 leukemia
  TGI: > 100 µM
HCC-2998 colon
  TGI: > 100 µM
HL-60(TB) leukemia
  TGI: > 100 µM
IGROV1 ovarian
  TGI: > 100 µM
SF-268 CNS
  TGI: > 100 µM
EKVX NSCLC
  TGI: > 100 µM
NCI-H23 lung
  TGI: > 100 µM
CCRF-CEM leukemia
  TGI: > 100 µM
OVCAR-3 ovarian
  TGI: > 100 µM
NCI-H226 lung
  TGI: > 100 µM
OVCAR-4 ovarian
  TGI: > 100 µM
SK-MEL-28 melanoma
  TGI: > 100 µM

## CC1CCC2C(C(=O)O[C@H]3C4C=CO[C@@H](OC5OC(CO)C(O)C(O)C5O)C4[C@@]4(CO)O[C@@H]34)=CO[C@@H](OC3OC(CO)C(O)C(O)C3O)C12 (stereo not given in full)
U251 CNS
  TGI: > 10 µM
M14 melanoma
  TGI: > 10 µM
UO-31 renal
  TGI: > 10 µM
RPMI-8226 leukemia
  TGI: > 10 µM
HCC-2998 colon
  TGI: > 10 µM
HL-60(TB) leukemia
  TGI: > 10 µM
IGROV1 ovarian
  TGI: > 10 µM
SF-268 CNS
  TGI: > 10 µM
EKVX NSCLC
  TGI: > 10 µM
NCI-H23 lung
  TGI: > 10 µM
CCRF-CEM leukemia
  TGI: > 10 µM
OVCAR-3 ovarian
  TGI: > 10 µM
NCI-H226 lung
  TGI: > 10 µM
OVCAR-4 ovarian
  TGI: > 10 µM
SK-MEL-28 melanoma
  TGI: > 10 µM

## CC(=O)O[C@H]1[C@@H](N2CCCCC2)C[C@H]2[C@@H]3CC=C4C[C@@H](N5CCCC5)CC[C@]4(C)[C@H]3CC[C@@]21C
U251 CNS
  TGI: > 100 µM
M14 melanoma
  TGI: 36.4 µM
UO-31 renal
  TGI: > 100 µM
RPMI-8226 leukemia
  TGI: 92.9 µM
HCC-2998 colon
  TGI: 34.4 µM
HL-60(TB) leukemia
  TGI: > 100 µM
IGROV1 ovarian
  TGI: > 100 µM
SF-268 CNS
  TGI: > 100 µM
EKVX NSCLC
  TGI: > 100 µM
NCI-H23 lung
  TGI: > 100 µM
CCRF-CEM leukemia
  TGI: > 100 µM
OVCAR-3 ovarian
  TGI: > 100 µM
NCI-H226 lung
  TGI: > 100 µM
OVCAR-4 ovarian
  TGI: > 100 µM
SK-MEL-28 melanoma
  TGI: 48.9 µM

## O=C(Cn1c(C(=O)/C=C/c2ccc(Cl)c(Cl)c2)nc2ccccc21)c1ccccc1
U251 CNS
  TGI: > 100 µM
M14 melanoma
  TGI: 72.2 µM
UO-31 renal
  TGI: 56 µM
RPMI-8226 leukemia
  TGI: > 100 µM
HCC-2998 colon
  TGI: 35.8 µM
HL-60(TB) leukemia
  TGI: 36.7 µM
IGROV1 ovarian
  TGI: 79 µM
SF-268 CNS
  TGI: > 100 µM
EKVX NSCLC
  TGI: 42.8 µM
NCI-H23 lung
  TGI: > 100 µM
CCRF-CEM leukemia
  TGI: 33.3 µM
OVCAR-3 ovarian
  TGI: 31.9 µM
NCI-H226 lung
  TGI: > 100 µM
OVCAR-4 ovarian
  TGI: 73.2 µM
SK-MEL-28 melanoma
  TGI: > 100 µM

## Cc1ccc2c(n1)C(=O)c1cc(C)c(C)cc1C2=O
U251 CNS
  TGI: > 100 µM
M14 melanoma
  TGI: > 100 µM
UO-31 renal
  TGI: > 100 µM
RPMI-8226 leukemia
  TGI: > 100 µM
HCC-2998 colon
  TGI: > 100 µM
HL-60(TB) leukemia
  TGI: > 100 µM
IGROV1 ovarian
  TGI: > 100 µM
SF-268 CNS
  TGI: > 100 µM
EKVX NSCLC
  TGI: > 100 µM
NCI-H23 lung
  TGI: > 100 µM
CCRF-CEM leukemia
  TGI: > 100 µM
OVCAR-3 ovarian
  TGI: 67.3 µM
NCI-H226 lung
  TGI: > 100 µM
OVCAR-4 ovarian
  TGI: > 100 µM
SK-MEL-28 melanoma
  TGI: > 100 µM

## COC(=O)c1c(C)c2c(c(C)c1O)OC(=O)c1c(C)cc(O)c(C=O)c1O2
U251 CNS
  TGI: > 100 µM
M14 melanoma
  TGI: > 100 µM
RPMI-8226 leukemia
  TGI: > 100 µM
HCC-2998 colon
  TGI: > 100 µM
HL-60(TB) leukemia
  TGI: > 100 µM
IGROV1 ovarian
  TGI: > 100 µM
SF-268 CNS
  TGI: > 100 µM
EKVX NSCLC
  TGI: > 100 µM
NCI-H23 lung
  TGI: > 100 µM
CCRF-CEM leukemia
  TGI: > 100 µM
OVCAR-3 ovarian
  TGI: > 100 µM
NCI-H226 lung
  TGI: > 100 µM
OVCAR-4 ovarian
  TGI: > 100 µM
SK-MEL-28 melanoma
  TGI: > 100 µM

## Clc1nc(NC23CC4CC(CC(C4)C2)C3)nc(NC23CC4CC(CC(C4)C2)C3)n1
U251 CNS
  TGI: > 69 µM
M14 melanoma
  TGI: > 100 µM
UO-31 renal
  TGI: > 100 µM
RPMI-8226 leukemia
  TGI: > 100 µM
HCC-2998 colon
  TGI: > 100 µM
HL-60(TB) leukemia
  TGI: 87.5 µM
IGROV1 ovarian
  TGI: > 100 µM
SF-268 CNS
  TGI: > 100 µM
EKVX NSCLC
  TGI: > 100 µM
NCI-H23 lung
  TGI: > 100 µM
CCRF-CEM leukemia
  TGI: > 90.8 µM
OVCAR-3 ovarian
  TGI: > 100 µM
NCI-H226 lung
  TGI: > 100 µM
OVCAR-4 ovarian
  TGI: > 100 µM
SK-MEL-28 melanoma
  TGI: > 100 µM

## CCc1n[nH]c(=O)n1N
U251 CNS
  TGI: > 100 µM
M14 melanoma
  TGI: > 100 µM
UO-31 renal
  TGI: > 100 µM
RPMI-8226 leukemia
  TGI: > 100 µM
HCC-2998 colon
  TGI: > 100 µM
HL-60(TB) leukemia
  TGI: > 100 µM
IGROV1 ovarian
  TGI: > 100 µM
SF-268 CNS
  TGI: > 100 µM
EKVX NSCLC
  TGI: > 100 µM
NCI-H23 lung
  TGI: > 100 µM
CCRF-CEM leukemia
  TGI: > 100 µM
OVCAR-3 ovarian
  TGI: > 100 µM
NCI-H226 lung
  TGI: > 100 µM
OVCAR-4 ovarian
  TGI: > 100 µM
SK-MEL-28 melanoma
  TGI: > 100 µM

## NC(N)=NS(=O)(=O)c1ccc(NCc2cccc3c(=O)c4ccc(Cl)cc4oc23)cc1
U251 CNS
  TGI: > 14.6 µM
M14 melanoma
  TGI: > 16.3 µM
UO-31 renal
  TGI: > 12.1 µM
RPMI-8226 leukemia
  TGI: > 25 µM
HCC-2998 colon
  TGI: > 25 µM
HL-60(TB) leukemia
  TGI: 5.94 µM
IGROV1 ovarian
  TGI: > 11 µM
SF-268 CNS
  TGI: 12.7 µM
EKVX NSCLC
  TGI: > 21.9 µM
NCI-H23 lung
  TGI: > 21.8 µM
CCRF-CEM leukemia
  TGI: > 7.9 µM
OVCAR-3 ovarian
  TGI: > 18.3 µM
NCI-H226 lung
  TGI: > 25 µM
OVCAR-4 ovarian
  TGI: > 18 µM
SK-MEL-28 melanoma
  TGI: > 23.6 µM

## CCCCCCCCCCCCCCCCNc1nc(=O)n(C2CC(O)C(COP(=O)(O)OC3CC(n4cc(F)c(=O)[nH]c4=O)OC3CO)O2)cc1F (stereo not given)
U251 CNS
  TGI: 32 µM
M14 melanoma
  TGI: 16.5 µM
UO-31 renal
  TGI: > 46.8 µM
RPMI-8226 leukemia
  TGI: 25.5 µM
HCC-2998 colon
  TGI: 11 µM
HL-60(TB) leukemia
  TGI: 19 µM
IGROV1 ovarian
  TGI: > 59.9 µM
SF-268 CNS
  TGI: > 34.2 µM
EKVX NSCLC
  TGI: 99.3 µM
NCI-H23 lung
  TGI: 19.4 µM
CCRF-CEM leukemia
  TGI: 17.6 µM
OVCAR-3 ovarian
  TGI: > 100 µM
NCI-H226 lung
  TGI: > 100 µM
OVCAR-4 ovarian
  TGI: > 100 µM
SK-MEL-28 melanoma
  TGI: > 68.7 µM

## CC(C)(C)C1CC[C@H](O)[C@H]([C@@H](O)CC2CC(=O)N(c3ccccc3)C(=O)C2)C1 (stereo not given in full)
U251 CNS
  TGI: > 100 µM
M14 melanoma
  TGI: > 100 µM
UO-31 renal
  TGI: > 100 µM
RPMI-8226 leukemia
  TGI: > 100 µM
HCC-2998 colon
  TGI: > 100 µM
HL-60(TB) leukemia
  TGI: 77.5 µM
IGROV1 ovarian
  TGI: > 100 µM
SF-268 CNS
  TGI: > 100 µM
EKVX NSCLC
  TGI: > 100 µM
NCI-H23 lung
  TGI: > 100 µM
CCRF-CEM leukemia
  TGI: > 100 µM
OVCAR-3 ovarian
  TGI: > 100 µM
NCI-H226 lung
  TGI: > 100 µM
OVCAR-4 ovarian
  TGI: > 100 µM
SK-MEL-28 melanoma
  TGI: > 100 µM
